From patent US20080214555A1 (priority 2007, published 2008)

How the values were obtained:
[1] = tested on: patients with non-ST elevation acute coronary syndrome; test: MERLIN-TIMI 36: arrhythmias on 7 day continuous ECG (Holter) recording; format: in vivo, human
Experimental: Continuous ECG (Holter) recording was performed for the first 7 days after randomization. Because of the known prolongation of the QT interval with ranolazine, analyses of a prespecified set of arrhythmias were a major objective of the trial. All arrhythmias were evaluated in the TIMI ECG Core Laboratory by cardiologists blinded to treatment and outcomes.
Continuous ECG (cECG or Holter) recording was performed for the first 7 days after randomization. Prespecified arrhythmia analyses were evaluated by a core laboratory blinded to treatment and outcomes.

[2] = background statement; cited from earlier work
[3] = tested on: patients with non-ST elevation acute coronary syndrome; test: MERLIN-TIMI 36: Seattle Angina Questionnaire scores at 4 months; format: in vivo, human; conditions: ITT
Source text: The MERLIN-TIMI 36 secondary efficacy endpoint (ITT) Seattle Angina Questionnaire scores at 4 months for anginal frequency scale are shown in Table 16 below, and scores for physical limitation scale are shown in Table 17 below.

[4] = Example 8 table, first 7 days, n = 3162
[5] = Table 24, all patients dosed, n = 3268
[6] = incidence of ventricular tachyarrhythmias table

Compound: COc1ccccc1OCC(O)CN1CCN(CC(=O)Nc2c(C)cccc2C)CC1 (racemic) [Ranolazine, (±)-N-(2,6-dimethylphenyl)-4-[2-hydroxy-3-(2-methoxyphenoxy)-propyl]-1-piperazineacetamide]
- Episode of ventricular arrhythmia lasting >=8 beats, % ([1]; Example 8): 5.5%
- Episode of ventricular arrhythmia lasting >=8 beats, number of patients ([1]; Example 8): 175
- New-onset atrial fibrillation, % ([1]; Example 8): 1.7%
- New-onset atrial fibrillation, number of patients ([1]; Example 8): 55
- Pauses >=3 seconds, % ([1]; Example 8): 3.1%
- Pauses >=3 seconds, number of patients ([1]; Example 8): 97
- Supraventricular tachycardia, % ([1]; Example 8): 43.2%
- Supraventricular tachycardia, number of patients ([1]; Example 8): 1413
- Any ventricular tachycardia >= 3 beats, % [1, 4]: (29.0) %
- Any ventricular tachycardia >= 3 beats, number [1, 4]: 948
- Brady, Complete heart block, or Pause >= 2.5 sec, % [1, 4]: (38.5) %
- Brady, Complete heart block, or Pause >= 2.5 sec, number [1, 4]: 1257
- Bradycardia < 45 bpm for at least 4 beats, % [1, 4]: (37.8) %
- Bradycardia < 45 bpm for at least 4 beats, number [1, 4]: 1236
- Clinically Significant Arrhythmia on Holter, % [1, 4]: (71.3) %
- Clinically Significant Arrhythmia on Holter, number [1, 4]: 2330
- Pause >3 secs, % [1, 4]: (3.1) %
- Pause >3 secs, number [1, 4]: 97
- Pause >3 secs: AV node block, % [1, 4]: (1.0) %
- Pause >3 secs: AV node block, number [1, 4]: 31
- Pause >3 secs: Other, % [1, 4]: (0.1) %
- Pause >3 secs: Other, number [1, 4]: 2
- Pause >3 secs: Sinoatrial node block, % [1, 4]: (2.0) %
- Pause >3 secs: Sinoatrial node block, number [1, 4]: 64
- Polymorphic VT >= 8 beats, % [1, 4]: (1.2) %
- Polymorphic VT >= 8 beats, number [1, 4]: 38
- Sustained VT (>=30 secs), % [1, 4]: (0.44) %
- Sustained VT (>=30 secs), number [1, 4]: 14
- Sustained VT (>=30 secs): Monomorphic, % [1, 4]: (0.12) %
- Sustained VT (>=30 secs): Monomorphic, number [1, 4]: 4
- Sustained VT (>=30 secs): Polymorphic, % [1, 4]: (0.32) %
- Sustained VT (>=30 secs): Polymorphic, number [1, 4]: 10
- Triplets, % [1, 4]: (46.9) %
- Triplets, number [1, 4]: 1532
- VT >= 4 beats, % [1, 4]: (23.6) %
- VT >= 4 beats, number [1, 4]: 772
- VT >= 8 beats (<30 secs), % [1, 4]: (5.5) %
- VT >= 8 beats (<30 secs), number [1, 4]: 175
- Episode of ventricular tachycardia lasting >8 beats, % ([1]; Example 9): 5.3%
- Episode of ventricular tachycardia lasting >8 beats, number of patients ([1]; Example 9): 166
- New-onset atrial fibrillation, % ([1]; Example 9): 1.7%
- New-onset atrial fibrillation, number of patients ([1]; Example 9): 55
- Pauses >3 seconds, % ([1]; Example 9): 3.1%
- Pauses >3 seconds, number of patients ([1]; Example 9): 97
- Supraventricular tachycardia, % ([1]; Example 9): 44.7%
- Supraventricular tachycardia, number of patients ([1]; Example 9): 1413
- Incidence of ventricular tachycardia ([1]; No. of beats ≧8): 5.3%
- Incidence of ventricular tachycardia ([1]; No. of beats ≧10): 3.5%
- Incidence of ventricular tachycardia ([1]; No. of beats ≧15): 1.3%
- Incidence of ventricular tachycardia ([1]; No. of beats ≧20): 0.9%
- Any Clinically Significant Arrhythmia during 7 day Holter, % [1, 5]: (71.3%)
- Any Clinically Significant Arrhythmia during 7 day Holter, number [1, 5]: 2330
- Bradycardic episode during 7 day Holter, % [1, 5]: (38.5%)
- Bradycardic episode during 7 day Holter, number [1, 5]: 1257
- New onset atrial fibrillation during 7 day Holter, % [1, 5]: (1.7%)
- New onset atrial fibrillation during 7 day Holter, number [1, 5]: 55
- Supraventricular tachycardia (any SVT >= 120 bpm) during 7 day Holter, % [1, 5]: (43.2%)
- Supraventricular tachycardia (any SVT >= 120 bpm) during 7 day Holter, number [1, 5]: 1413
- Ventricular tachycardia (any VT >= 100 bpm >= 3 beats) during 7 day Holter, % [1, 5]: (29.0%)
- Ventricular tachycardia (any VT >= 100 bpm >= 3 beats) during 7 day Holter, number [1, 5]: 948
- Polymorphic VT >= 8 beats on cECG, % [1, 6]: (1.2) %
- Sustained VT (>=30 sec) on cECG, % [1, 6]: (0.44) %
- VT ≧ 3 beats (≧100 b/m) on cECG, % [1, 6]: (52.1) %
- VT ≧ 4 beats (≧100 b/m) on cECG, % [1, 6]: (20.9) %
- VT ≧ 8 beats (<30 sec) on cECG, % [1, 6]: (5.3) %
- Polymorphic VT >= 8 beats on cECG, Δ n ([1]; placebo vs ranolazine): 10
- Sustained VT (>=30 sec) on cECG, Δ n ([1]; placebo vs ranolazine): 0
- VT ≧ 3 beats (≧100 b/m) on cECG, Δ n ([1]; placebo vs ranolazine): 347
- VT ≧ 4 beats (≧100 b/m) on cECG, Δ n ([1]; placebo vs ranolazine): 279
- VT ≧ 8 beats (<30 sec) on cECG, Δ n ([1]; placebo vs ranolazine): 99
- Polymorphic VT >= 8 beats on cECG, Δ (%) ([1]; ranolazine vs placebo): (−21) %
- VT ≧ 3 beats (≧100 b/m) on cECG, Δ (%) ([1]; ranolazine vs placebo): (−17) %
- VT ≧ 4 beats (≧100 b/m) on cECG, Δ (%) ([1]; ranolazine vs placebo): (−30) %
- VT ≧ 8 beats (<30 sec) on cECG, Δ (%) ([1]; ranolazine vs placebo): (−37) %
- Incidence of ventricular tachycardia of >8 beats ([1]; subgroup baseline QTc >450 msec): 5.6%
- Incidence of ventricular tachycardia of >8 beats ([1]; subgroup baseline QTc ≦450 msec): 5.2%
- Incidence of ventricular tachycardia of >8 beats ([1]; subgroup ejection fraction <40%): 8.8%
- Incidence of ventricular tachycardia of >8 beats ([1]; subgroup ejection fraction ≧40%): 5.3%
- Prolonging the QTc interval [2]: 2 to 5 ms
- Seattle Angina Questionnaire physical limitation scale score, 25th percentile-75th percentile ([3]; N 2339): 55.6-94.4
- Seattle Angina Questionnaire physical limitation scale score, Mean (SEM) ([3]; N 2339): 72.8 (0.5)
- Seattle Angina Questionnaire physical limitation scale score, Median ([3]; N 2339): 77.8
- Seattle Angina Questionnaire physical limitation scale score, Min-Max ([3]; N 2339): 0-100
- Seattle Angina Questionnaire anginal frequency scale score, 25th percentile-75th percentile ([3]; N 2558): 80-100
- Seattle Angina Questionnaire anginal frequency scale score, Mean (SEM) ([3]; N 2558): 84.3 (0.4)
- Seattle Angina Questionnaire anginal frequency scale score, Median ([3]; N 2558): 100
- Seattle Angina Questionnaire anginal frequency scale score, Min-Max ([3]; N 2558): 0-100
